Assay results published in ChEMBL document CHEMBL1201862, “PubChem BioAssay data set” (2004).
Activity calls are given as the source filed them.

What was measured:
[1] = target: T1, Carboxy-terminal domain RNA polymerase II polypeptide A small phosphatase 1 (Homo sapiens, UniProt Q9GZU7); assay: inhibitors of CTDSP1, concentration-response testing, biochemical assay, absorbance-based, actives from ultra-high-throughput screening (AID 540297); assay type: functional
T1 sequence (Q9GZU7 whole entry): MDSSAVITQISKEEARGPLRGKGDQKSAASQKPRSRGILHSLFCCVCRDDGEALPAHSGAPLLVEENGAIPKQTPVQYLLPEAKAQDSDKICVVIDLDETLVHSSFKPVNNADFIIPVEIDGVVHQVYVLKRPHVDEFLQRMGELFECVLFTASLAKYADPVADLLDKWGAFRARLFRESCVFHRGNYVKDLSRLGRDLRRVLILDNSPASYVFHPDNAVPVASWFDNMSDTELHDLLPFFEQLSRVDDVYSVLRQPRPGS

Large T antigen = Large T antigen (Simian virus 40, UniProt P03070); assay type: functional, Betapolyomavirus macacae;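 further: Confirmatory-stage PubChem screen for compounds that inhibit SV40 T antigen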
[2] = target: T2, Heat shock factor protein 1 (Mus musculus, UniProt P38532); assay: HSF1 potentiators in luciferase reporter cells, confirmation, cell-based, NIH3T3, luminescence, dose retest (AID 435004); assay type: functional;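 further: stress induced by proteasome inhibitor MG132 added 30 min after compound; luciferase reporter driven by HSF1 response element in NIH3T3 cells; actives raise luminescence as potentiators of the MG132 stress response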
T2 sequence (P38532 whole entry): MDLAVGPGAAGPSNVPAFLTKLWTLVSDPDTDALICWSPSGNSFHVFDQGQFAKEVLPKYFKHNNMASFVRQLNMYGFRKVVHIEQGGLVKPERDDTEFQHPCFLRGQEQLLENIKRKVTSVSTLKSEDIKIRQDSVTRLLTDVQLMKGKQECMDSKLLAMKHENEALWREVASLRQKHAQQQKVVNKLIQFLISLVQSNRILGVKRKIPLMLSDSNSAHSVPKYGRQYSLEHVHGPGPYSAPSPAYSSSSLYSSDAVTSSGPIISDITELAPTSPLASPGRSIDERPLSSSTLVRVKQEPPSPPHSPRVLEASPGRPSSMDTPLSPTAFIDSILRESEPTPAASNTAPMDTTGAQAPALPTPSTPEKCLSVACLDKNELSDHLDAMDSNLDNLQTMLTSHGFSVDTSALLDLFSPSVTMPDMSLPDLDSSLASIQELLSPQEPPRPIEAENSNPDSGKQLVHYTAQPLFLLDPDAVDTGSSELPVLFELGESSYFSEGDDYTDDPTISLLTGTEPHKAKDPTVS

Genome polyprotein = Genome polyprotein (dengue virus type 2, UniProt P29990); assay: Dengue-2 NS5 methyltransferase inhibitors, primary screen, biochemical, confirmation dose response (AID 588689); assay type: functional
Cytochrome P450 2C19 = Cytochrome P450 2C19 (Homo sapiens, UniProt P33261); assay: Cytochrome panel assay with activity outcomes. Panel member name: p450-cyp2c19 Compounds with AC50 equal or less than 10 uM are considered active; assay type: functional; details: read-out: AC50
Cytochrome P450 3A4 = Cytochrome P450 3A4 (Homo sapiens, UniProt P08684);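 further: CYP3A4 tested as one member of a cytochrome P450 panel screen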
Fatty acid synthase [3] = target: T3, Fatty acid synthase (Homo sapiens, UniProt P49327); assay: FAS thioesterase domain inhibitors, dose response, biochemical, endpoint fluorescence intensity, uHTS hits (AID 624327); assay type: functional;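 further: fluorescence from hydrolysis of an O-methyl fluorescein acyl ester substrate by the enzyme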
Fatty acid synthase [4] = target: T3, Fatty acid synthase; assay: FAS thioesterase domain inhibitors, dose response, biochemical, kinetic fluorescence intensity (AID 624326); assay type: functional;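 further: rate of fluorescence rise from hydrolysis of a fluorogenic O-methyl fluorescein ester substrate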
[5] = Luminescence Cell-Based Dose Confirmation HTS to Identify Activators of 5'UTR Stem-Loop Driven Alpha-Synuclein mRNA Translation in H4 Neuroglioblastoma Cells. [Related pubchem assays: 1829 (Project Summary), 1814 (Primary HTS)]; assay type: functional
[6] = Luminescence Cell-Based Dose Response HTS to Identify Activators of Luciferase Translation or Activity in H4 […] Cells. [Related pubchem assays: 1829 (Project Summary), 1814 (Primary HTS)]; assay type: functional
H4 = assay: Luminescence Cell-Based Dose Response HTS to Identify Activators of 5'UTR Stem-Loop Driven Prion Protein mRNA Translation in H4 Neuroglioblastoma Cells. [Related pubchem assays: 1829 (Project Summary), 1814 (Primary HTS)]; assay type: functional; details: Homo sapiens
[7] = target: Luciferin 4-monooxygenase (Photinus pyralis, UniProt P08659); assay: firefly luciferase enzyme inhibitors, dose response, biochemical, luminescence (AID 1891)
[8] = Luminescence Cell-Based Dose Confirmation HTS to Identify Inhibitors of Platelet Dense Granule Release. [Related pubchem assays: 1663 (Primary HTS), 1678 (Summary of Project)]; assay type: functional
[9] = target: T4, Corticotropin-releasing factor receptor 2/Corticotropin-releasing factor-binding protein (Homo sapiens, UniProt P24387+Q13324); assay: Dose Response confirmation of uHTS hits for small molecule antagonists of the CRF-binding protein and CRF-R2 receptor complex.; assay type: functional; details: read-out: IC50_Mean
T4 sequence (Q13324 whole entry): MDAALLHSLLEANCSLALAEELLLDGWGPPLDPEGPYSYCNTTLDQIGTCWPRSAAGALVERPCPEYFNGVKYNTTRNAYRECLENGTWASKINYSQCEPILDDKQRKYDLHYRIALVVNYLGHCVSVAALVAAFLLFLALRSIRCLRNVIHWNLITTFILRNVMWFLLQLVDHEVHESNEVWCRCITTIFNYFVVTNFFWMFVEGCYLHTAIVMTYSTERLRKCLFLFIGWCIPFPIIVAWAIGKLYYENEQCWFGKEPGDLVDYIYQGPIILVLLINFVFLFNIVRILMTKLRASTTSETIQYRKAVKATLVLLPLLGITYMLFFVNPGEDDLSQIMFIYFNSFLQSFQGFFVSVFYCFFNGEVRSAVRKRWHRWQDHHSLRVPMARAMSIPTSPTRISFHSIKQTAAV
T4 sequence (P24387 whole entry): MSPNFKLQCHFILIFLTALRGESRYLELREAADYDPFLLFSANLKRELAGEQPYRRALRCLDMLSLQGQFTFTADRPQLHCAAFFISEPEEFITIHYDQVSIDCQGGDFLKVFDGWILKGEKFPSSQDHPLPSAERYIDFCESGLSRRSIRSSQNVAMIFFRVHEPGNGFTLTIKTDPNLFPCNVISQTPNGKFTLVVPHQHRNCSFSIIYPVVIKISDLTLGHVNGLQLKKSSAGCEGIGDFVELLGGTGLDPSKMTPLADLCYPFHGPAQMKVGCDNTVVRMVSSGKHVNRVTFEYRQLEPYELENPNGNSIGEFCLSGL

[10] = target: T4, Corticotropin-releasing factor receptor 2/Corticotropin-releasing factor-binding protein; assay: activators of CRF receptor 2 with binding protein – uHTS hits, confirmation (AID 602473); assay type: functional; details: read-out: EC50_Mean
[11] = target: T5, Calpain-2 catalytic subunit (Sus scrofa, UniProt P43367); assay: pig calpain II inhibitor potency, dose response, biochemical, fluorogenic peptide substrate (AID 1420); assay type: functional
T5 sequence (P43367 whole entry): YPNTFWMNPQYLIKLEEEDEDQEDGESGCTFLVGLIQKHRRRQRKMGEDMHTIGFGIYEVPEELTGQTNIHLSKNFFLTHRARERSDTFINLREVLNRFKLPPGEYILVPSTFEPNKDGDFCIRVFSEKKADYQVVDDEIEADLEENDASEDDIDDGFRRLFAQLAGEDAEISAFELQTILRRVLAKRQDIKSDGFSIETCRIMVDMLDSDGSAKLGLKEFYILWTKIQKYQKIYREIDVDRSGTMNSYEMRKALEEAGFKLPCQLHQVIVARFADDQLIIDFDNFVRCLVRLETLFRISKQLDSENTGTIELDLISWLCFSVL

[12] = system: Streptococcus sp. 'group A'; assay: growth inhibition of control SK(-) GAS strain, dose response, counter-screen for streptokinase expression inhibitor project, luminescence, kanamycin, BacTiterGlo, confirmation (AID 1900); assay type: functional, organism-based
[13] = target: T2, Heat shock factor protein 1; assay: inhibition of MG132-induced HSE-luciferase signal, confirmation, cell-based, NIH3T3, luminescence, dose retest (AID 2382); assay type: functional;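 further: NIH3T3 fibroblasts with HSF1-driven luciferase reporter stressed by proteasome inhibitor MG132; luminescence from HSF1-driven luciferase expression after 8 hours of MG132 stress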
Streptococcus = assay: Group A Streptococcus viability loss, dose response, counter-screen for streptokinase expression inhibitor project, luminescence, BacTiterGlo (AID 1915); assay type: functional, organism-based;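 further: potency for reduction of bacterial viability or growth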
[14] = P. falciparum Dd2 growth inhibitors, dose response, SYBR Green, cherry-picked samples (AID 1159567); assay type: functional, cell-based

Genome polyprotein, sequence (P29990 2492-3391 limits assumed): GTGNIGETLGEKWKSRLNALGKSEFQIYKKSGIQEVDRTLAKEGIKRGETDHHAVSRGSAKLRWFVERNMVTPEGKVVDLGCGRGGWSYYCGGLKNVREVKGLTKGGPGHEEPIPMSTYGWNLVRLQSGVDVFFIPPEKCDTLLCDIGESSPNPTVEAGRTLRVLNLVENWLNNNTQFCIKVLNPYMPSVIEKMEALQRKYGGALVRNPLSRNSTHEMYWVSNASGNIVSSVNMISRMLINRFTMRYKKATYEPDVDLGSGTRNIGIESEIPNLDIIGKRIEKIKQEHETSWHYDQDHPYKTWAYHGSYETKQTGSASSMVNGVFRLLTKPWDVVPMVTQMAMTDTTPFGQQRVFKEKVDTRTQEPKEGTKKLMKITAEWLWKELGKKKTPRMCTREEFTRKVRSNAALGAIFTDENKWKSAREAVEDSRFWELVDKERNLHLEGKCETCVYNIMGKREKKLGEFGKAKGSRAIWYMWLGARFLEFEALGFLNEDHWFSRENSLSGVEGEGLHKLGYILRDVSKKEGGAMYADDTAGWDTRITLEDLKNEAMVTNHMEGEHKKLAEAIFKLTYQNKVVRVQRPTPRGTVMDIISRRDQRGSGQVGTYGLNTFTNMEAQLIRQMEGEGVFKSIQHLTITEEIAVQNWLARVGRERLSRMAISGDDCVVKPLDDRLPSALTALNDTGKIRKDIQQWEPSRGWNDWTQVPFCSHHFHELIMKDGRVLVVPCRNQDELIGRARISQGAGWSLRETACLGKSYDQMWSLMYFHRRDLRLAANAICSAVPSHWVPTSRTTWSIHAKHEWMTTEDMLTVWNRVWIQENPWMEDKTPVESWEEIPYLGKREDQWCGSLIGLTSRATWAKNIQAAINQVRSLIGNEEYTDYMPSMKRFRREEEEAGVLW
T3 sequence (P49327 whole entry, the tested form may be a part): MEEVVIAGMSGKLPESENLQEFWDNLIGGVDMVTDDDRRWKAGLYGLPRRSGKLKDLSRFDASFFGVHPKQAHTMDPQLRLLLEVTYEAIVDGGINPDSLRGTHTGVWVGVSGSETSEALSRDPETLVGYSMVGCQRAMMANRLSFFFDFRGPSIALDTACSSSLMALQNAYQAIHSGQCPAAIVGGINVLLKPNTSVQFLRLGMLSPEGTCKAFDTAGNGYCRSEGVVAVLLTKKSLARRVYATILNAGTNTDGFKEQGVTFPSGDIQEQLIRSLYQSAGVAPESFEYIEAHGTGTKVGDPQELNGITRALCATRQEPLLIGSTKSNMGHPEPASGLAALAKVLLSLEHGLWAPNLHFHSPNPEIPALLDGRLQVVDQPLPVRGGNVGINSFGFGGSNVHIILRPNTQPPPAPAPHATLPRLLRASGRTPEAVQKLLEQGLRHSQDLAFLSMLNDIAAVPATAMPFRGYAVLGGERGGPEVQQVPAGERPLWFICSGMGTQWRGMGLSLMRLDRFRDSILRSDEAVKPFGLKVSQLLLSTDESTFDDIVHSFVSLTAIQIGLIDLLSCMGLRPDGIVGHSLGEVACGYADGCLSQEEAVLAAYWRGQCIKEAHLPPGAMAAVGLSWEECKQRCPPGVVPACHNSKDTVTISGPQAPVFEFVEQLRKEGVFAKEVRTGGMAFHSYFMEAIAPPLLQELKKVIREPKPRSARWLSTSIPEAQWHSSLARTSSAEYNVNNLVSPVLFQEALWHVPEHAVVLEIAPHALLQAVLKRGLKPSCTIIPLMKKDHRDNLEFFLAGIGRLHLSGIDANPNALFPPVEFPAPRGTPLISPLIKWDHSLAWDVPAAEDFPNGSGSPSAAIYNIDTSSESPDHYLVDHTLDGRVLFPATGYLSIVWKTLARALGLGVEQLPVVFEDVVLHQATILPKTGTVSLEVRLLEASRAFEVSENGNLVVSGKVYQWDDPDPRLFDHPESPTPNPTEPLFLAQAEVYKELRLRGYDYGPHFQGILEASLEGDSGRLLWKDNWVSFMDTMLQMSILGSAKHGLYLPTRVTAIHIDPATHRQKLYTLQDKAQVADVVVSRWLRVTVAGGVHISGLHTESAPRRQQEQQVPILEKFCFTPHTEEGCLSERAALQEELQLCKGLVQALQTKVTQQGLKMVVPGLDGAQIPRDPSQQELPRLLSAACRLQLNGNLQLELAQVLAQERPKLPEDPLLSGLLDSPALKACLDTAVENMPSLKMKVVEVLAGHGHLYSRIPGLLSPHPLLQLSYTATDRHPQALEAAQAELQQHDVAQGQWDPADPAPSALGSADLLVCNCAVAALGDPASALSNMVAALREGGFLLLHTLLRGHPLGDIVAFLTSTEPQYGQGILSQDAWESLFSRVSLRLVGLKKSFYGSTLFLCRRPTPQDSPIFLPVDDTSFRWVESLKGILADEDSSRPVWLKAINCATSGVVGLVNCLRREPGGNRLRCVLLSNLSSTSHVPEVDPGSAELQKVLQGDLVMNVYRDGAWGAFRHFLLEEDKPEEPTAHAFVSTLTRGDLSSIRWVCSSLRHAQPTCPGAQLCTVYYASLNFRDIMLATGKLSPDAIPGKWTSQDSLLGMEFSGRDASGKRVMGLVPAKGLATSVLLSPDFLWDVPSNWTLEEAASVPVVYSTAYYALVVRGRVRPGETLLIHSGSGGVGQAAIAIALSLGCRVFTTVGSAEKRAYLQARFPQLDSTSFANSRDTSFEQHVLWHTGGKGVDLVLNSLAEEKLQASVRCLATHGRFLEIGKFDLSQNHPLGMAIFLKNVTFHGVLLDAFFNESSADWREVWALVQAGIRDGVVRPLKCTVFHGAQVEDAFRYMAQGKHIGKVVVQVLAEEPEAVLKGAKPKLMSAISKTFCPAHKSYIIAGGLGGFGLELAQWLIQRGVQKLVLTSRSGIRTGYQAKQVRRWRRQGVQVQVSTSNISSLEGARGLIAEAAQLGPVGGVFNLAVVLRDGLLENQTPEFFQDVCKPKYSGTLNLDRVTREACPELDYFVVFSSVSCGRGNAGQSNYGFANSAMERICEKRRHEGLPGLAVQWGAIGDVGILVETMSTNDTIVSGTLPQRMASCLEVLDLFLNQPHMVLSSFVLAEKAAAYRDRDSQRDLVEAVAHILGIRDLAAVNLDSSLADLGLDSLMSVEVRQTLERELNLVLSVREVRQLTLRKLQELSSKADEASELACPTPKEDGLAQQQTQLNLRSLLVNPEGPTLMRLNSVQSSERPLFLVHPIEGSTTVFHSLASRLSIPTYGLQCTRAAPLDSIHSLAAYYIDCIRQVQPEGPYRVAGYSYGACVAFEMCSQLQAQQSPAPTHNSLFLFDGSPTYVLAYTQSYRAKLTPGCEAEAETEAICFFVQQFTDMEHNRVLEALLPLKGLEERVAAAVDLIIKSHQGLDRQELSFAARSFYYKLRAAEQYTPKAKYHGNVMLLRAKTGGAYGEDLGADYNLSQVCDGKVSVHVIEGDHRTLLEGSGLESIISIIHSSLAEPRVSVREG
Cytochrome P450 3A4, sequence (P08684 whole entry, the tested form may be a part): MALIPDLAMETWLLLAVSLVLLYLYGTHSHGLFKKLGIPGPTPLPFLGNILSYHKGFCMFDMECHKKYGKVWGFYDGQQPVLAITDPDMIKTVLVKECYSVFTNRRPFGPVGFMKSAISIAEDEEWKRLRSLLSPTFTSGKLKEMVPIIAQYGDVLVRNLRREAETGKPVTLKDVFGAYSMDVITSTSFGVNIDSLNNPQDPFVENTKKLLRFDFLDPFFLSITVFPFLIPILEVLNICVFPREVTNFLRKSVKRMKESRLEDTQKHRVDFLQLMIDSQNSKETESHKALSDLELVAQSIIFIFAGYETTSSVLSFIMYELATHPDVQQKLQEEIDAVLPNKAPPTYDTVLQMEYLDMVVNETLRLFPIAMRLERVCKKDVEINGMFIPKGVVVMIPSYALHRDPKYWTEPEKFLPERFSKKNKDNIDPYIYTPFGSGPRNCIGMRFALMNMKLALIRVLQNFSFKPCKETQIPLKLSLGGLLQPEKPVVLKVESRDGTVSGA
Luciferin 4-monooxygenase, sequence (P08659 whole entry): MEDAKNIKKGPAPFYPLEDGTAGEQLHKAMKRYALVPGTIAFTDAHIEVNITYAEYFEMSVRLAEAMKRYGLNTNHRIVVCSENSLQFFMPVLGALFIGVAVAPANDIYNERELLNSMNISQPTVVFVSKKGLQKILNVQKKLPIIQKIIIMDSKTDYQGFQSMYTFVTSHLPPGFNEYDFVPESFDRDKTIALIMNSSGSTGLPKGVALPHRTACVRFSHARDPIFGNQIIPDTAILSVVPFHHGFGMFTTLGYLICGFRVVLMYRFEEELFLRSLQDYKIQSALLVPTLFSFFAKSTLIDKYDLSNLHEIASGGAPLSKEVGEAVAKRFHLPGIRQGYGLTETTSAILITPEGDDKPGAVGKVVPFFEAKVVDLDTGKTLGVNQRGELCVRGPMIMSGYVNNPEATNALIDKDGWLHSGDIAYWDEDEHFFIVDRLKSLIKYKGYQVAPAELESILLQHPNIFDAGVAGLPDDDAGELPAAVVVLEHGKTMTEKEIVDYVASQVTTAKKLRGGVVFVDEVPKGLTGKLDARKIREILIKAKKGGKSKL
Cytochrome P450 2C19, sequence (P33261 whole entry): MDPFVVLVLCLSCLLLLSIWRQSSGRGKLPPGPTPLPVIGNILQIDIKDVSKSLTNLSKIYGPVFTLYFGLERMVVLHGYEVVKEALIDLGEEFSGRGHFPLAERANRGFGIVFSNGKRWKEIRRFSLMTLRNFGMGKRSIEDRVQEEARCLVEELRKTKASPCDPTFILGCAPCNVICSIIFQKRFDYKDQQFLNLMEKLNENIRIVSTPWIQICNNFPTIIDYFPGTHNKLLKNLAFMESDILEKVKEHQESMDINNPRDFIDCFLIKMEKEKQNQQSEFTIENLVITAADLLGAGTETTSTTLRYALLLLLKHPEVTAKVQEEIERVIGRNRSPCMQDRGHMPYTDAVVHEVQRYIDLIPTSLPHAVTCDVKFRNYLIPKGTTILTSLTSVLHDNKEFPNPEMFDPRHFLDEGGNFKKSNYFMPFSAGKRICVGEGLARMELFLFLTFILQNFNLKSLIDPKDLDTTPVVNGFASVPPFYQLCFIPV

O=C(CCN1C(=O)/C(=C/c2ccc(Cl)cc2)SC1=S)Nc1cccc(C(=O)O)c1
IC50 [1]: 4.43 µM (active)

O=C(CS(=O)(=O)c1ccccc1)c1cc2cc(F)ccc2oc1=O
IC50 (Large T antigen): 62.8 µM (active)
EC50 [2]: > 260 µM (inactive)
IC50 (Genome polyprotein): > 100 µM (active)

CCc1ccc(NC(=O)C[S+]([O-])CC(=O)NCCCc2ccccc2)cc1 (stereo not drawn)
AC50 (Cytochrome P450 2C19): 11.2 µM (inconclusive)
IC50 [1]: 7.62 µM (active)
AC50 (Cytochrome P450 3A4): 2.82 µM (inconclusive)

COc1ccccc1/C=C(\NC(=O)c1ccc(OC)c(OC)c1)C(=O)Nc1cccc([N+](=O)[O-])c1
IC50 (Fatty acid synthase [3]): 11.9 µM (active)
IC50 (Fatty acid synthase [4]): 16 µM (active)

COc1ccc(OC)c(S(=O)(=O)ON2C(=O)c3ccccc3C2=O)c1
EC50 [5]: > 120 µM (not active)
EC50 [6]: > 120 µM (not active)
EC50 (H4): > 120 µM (not active)
IC50 (Fatty acid synthase [3]): 3.72 µM (active)
IC50 (Fatty acid synthase [4]): 3.19 µM (active)

Cc1ccc(-c2n[nH]c(Cc3ccccc3)n2)cc1
EC50 [5]: 0.105 µM (active)
EC50 [6]: 2.44 µM (active)
EC50 (H4): 60.8 µM (active)

O=C1/C(=C/Nc2cccc(O)c2)c2ccccc2C(=O)N1c1ccc2c(c1)OCO2
EC50 [5]: > 120 µM (not active)
EC50 [6]: > 120 µM (not active)
EC50 (H4): > 120 µM (not active)

C=CCNc1nc(C(=O)OCC(=O)c2cccc(Br)c2)cs1
IC50 [1]: 4 µM (active)

Cc1nc2sc(C(=O)c3ccccc3)c(N)c2c2c1CCCC2
EC50 [5]: > 120 µM (not active)
EC50 [6]: 6.25 µM (active)
EC50 (H4): 10.5 µM (active)
EC50 [7]: > 112 µM (not active)
EC50 [8]: > 112 µM (not active)

C[C@@H]1CC=C[C@@H]2[C@H]1C(=O)N(Cc1ccccc1)[C@H]2c1cccc(C#Cc2ccccc2)c1
IC50 [1]: 20 µM (active)

COc1cccc(/C=C2\Oc3cc(OCC(=O)N4Cc5ccccc5C[C@H]4C(=O)O)ccc3C2=O)c1
IC50 (Genome polyprotein): 43.4 µM (active)

Cc1nc2nc(-c3cccs3)cn2nc1C
IC50 (Genome polyprotein): 17.6 µM (active)

CCCC12CN(C(=O)c3ccc([N+](=O)[O-])cc3)CC(C)(CN(C(=O)c3ccc([N+](=O)[O-])cc3)C1)C2=O
IC50 [9]: > 47.1 µM (inactive)
EC50 [10]: > 53 µM (inactive)
IC50 (Fatty acid synthase [3]): 9.85 µM (active)
IC50 (Fatty acid synthase [4]): 12.9 µM (active)

O=C(CSc1nnnn1-c1ccc(Cl)cc1)NC(=O)Nc1ccc2c(c1)OCCO2
EC50 [5]: > 120 µM (not active)
EC50 [6]: 45.7 µM (active)
EC50 (H4): 10.1 µM (active)

N#C/C(=C\c1c(N2CCC(C(N)=O)CC2)nc2ccccn2c1=O)S(=O)(=O)c1ccc(Cl)cc1
IC50 (Fatty acid synthase [3]): 17.1 µM (active)
IC50 (Fatty acid synthase [4]): 6.07 µM (active)

CCS(=O)(=O)c1ccc(-c2csc(-c3ccccc3)n2)c(Cl)c1Cl
IC50 (Fatty acid synthase [3]): 1.21 µM (active)
IC50 (Fatty acid synthase [4]): 0.907 µM (active)

CC(C)=C1C2CCC1C1C(=O)N(c3nc(-c4ccccc4)c(C)s3)C(=O)C21 (stereo not drawn)
IC50 [11]: 8.52 µM (not active)
EC50 [2]: > 260 µM (inactive)

O=[N+]([O-])c1ccc(-c2c[nH]c(SCc3ccccc3Cl)n2)cc1
EC50 [5]: > 120 µM (not active)
EC50 [6]: 18.9 µM (active)
EC50 (H4): 17.5 µM (active)

COc1ccc([N+](=O)[O-])cc1NC(=O)C(C)NNC(=O)c1cccc([N+](=O)[O-])c1 (stereo not drawn)
IC50 (Fatty acid synthase [3]): 12.7 µM (active)
IC50 (Fatty acid synthase [4]): 10.7 µM (active)

C=CCn1c(=S)[nH]c2cc(C(=O)N3CCN(c4ccccc4OC)CC3)ccc2c1=O
IC50 (Fatty acid synthase [3]): 17.6 µM (active)
IC50 (Fatty acid synthase [4]): 32.9 µM (inactive)

O=C(CN1C(=O)NC2(CCCCCC2)C1=O)Nc1ccc(Cl)c([N+](=O)[O-])c1
IC50 (Fatty acid synthase [3]): 8.92 µM (active)
IC50 (Fatty acid synthase [4]): 5.92 µM (active)

O=C(O)c1cccc(N/N=C/C2=C(Cl)c3cc(Cl)ccc3SC2)c1
EC50 [12]: 2.48 µM (active)
EC50 [13]: > 195 µM (not active)
IC50 [11]: 2.38 µM (not active)
EC50 (Streptococcus): 6.65 µM (active)

CCCNC(=O)N1CCC2(CC1)CN(Cc1ccc(F)cc1)[C@@H](CO)c1[nH]c3cc(OC)ccc3c12
AC50 [14]: 5.11 µM (active)

COc1ccc(CN2CC3(CN(C(=O)Cc4ccccc4)C3)c3c([nH]c4cc(OC)ccc34)[C@H]2CO)cc1
AC50 [14]: 6.52 µM (active)

C[N+]1(C)CCc2cc3c(cc2[C@H]1[C@@H]1OC(=O)c2c1ccc1c2OCO1)OCO3
IC50 [1]: 3.48 µM (active)
